Experiment [1] concerns the target T1, IRP1 (Mus musculus, UniProt P28271).
T1 sequence (P28271 1-889): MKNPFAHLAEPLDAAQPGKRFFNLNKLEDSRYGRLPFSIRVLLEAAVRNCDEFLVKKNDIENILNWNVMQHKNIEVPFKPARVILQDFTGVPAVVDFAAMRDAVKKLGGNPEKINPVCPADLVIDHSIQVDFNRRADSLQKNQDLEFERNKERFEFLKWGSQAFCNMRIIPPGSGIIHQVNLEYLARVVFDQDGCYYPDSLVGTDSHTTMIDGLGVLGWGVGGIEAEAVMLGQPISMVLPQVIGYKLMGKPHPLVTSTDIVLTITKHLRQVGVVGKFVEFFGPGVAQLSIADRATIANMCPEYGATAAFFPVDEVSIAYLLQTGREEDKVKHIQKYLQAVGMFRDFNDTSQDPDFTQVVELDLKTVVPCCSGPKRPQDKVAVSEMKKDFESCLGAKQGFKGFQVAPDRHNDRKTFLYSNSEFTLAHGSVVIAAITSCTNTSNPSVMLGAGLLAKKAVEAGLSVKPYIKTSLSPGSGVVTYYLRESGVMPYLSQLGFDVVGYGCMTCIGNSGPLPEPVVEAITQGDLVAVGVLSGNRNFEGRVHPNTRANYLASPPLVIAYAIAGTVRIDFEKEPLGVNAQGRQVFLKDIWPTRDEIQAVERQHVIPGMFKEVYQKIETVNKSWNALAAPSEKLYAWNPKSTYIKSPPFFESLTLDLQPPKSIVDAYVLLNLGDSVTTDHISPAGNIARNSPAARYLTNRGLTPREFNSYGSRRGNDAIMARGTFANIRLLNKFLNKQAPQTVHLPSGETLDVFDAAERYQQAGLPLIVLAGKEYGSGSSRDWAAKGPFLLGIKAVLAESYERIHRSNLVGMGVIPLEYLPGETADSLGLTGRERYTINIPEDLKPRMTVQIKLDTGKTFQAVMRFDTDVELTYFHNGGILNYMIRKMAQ
Briefly: IRE binding activity of IRP1 in brain-region lysates of IRP2−/− mice (gel-shift). The arrangement: Lysates made from various brain regions of IRP2−/− mice; from tissue; host or cells: mouse brain (cerebellum, forebrain, brain-stem) lysates. Format: in vivo. The conditions noted are these: lysates from cerebellum, brain-stem and forebrain of IRP2−/− mice, Tempo1 diet vs control diet. On the procedure:
Diet: The mice were weaned 3-4 weeks after their birth. Immediately after weaning, mice were maintained on either a Tempo1-supplemented or control diet. In the Tempo1-supplemented diet, powdered Tempo1 was uniformly mixed with bacon-flavored mouse chow by a “cold press” technique (Bio-Serv, Frenchtown, N.J., USA) at a concentration of 10 mg/g of food. Bacon-flavored chow without Tempo1 was used as the control diet.
Tissue and lysate preparation: Animals were euthanized and tissues were frozen in liquid nitrogen immediately after harvesting, and stored at −80° C. under argon. Experiments were performed on tissues that were pulverized in liquid N2-cooled mortars in an anaerobic chamber, and then lysed in lysis buffer that was deaerated by cyclic freezethaw and air-removal with argon. […]
Lysates made from various brain regions of IRP2−/− mice that were maintained on a control diet or on a Tempo1-supplemented diet were analyzed for IRE binding activity of IRP1 and for TfR1, IRP1, and actin protein levels by gel-shift assay and Western blot. […] FIG. 3b is a quantification of the results as intensity of the bands relative to the control, represented here as 100%. Quantification was performed with the IQMac (IRP1 activity) or NIH Image (protein levels) program. Error bars represent the standard deviation calculated from the results of two different sets of animals.

Experiment [2] addresses T1, IRP1. Briefly: Gel-shift of IRP1 in wild type and IRP2−/− mouse embryonic fibroblasts after Tempo1 or DFO and washout. The experiment is classed as cell-based. The arrangement: Embryonic fibroblasts of 13-day old embryos were isolated from wild type, IRP1−/− mice and IRP2−/− mice; endogenous in cells; host or cells: mouse embryonic fibroblasts (wild type and IRP2−/−). On the procedure: Cells: Embryonic fibroblasts of 13-day old embryos were isolated from wild type, IRP1−/− mice and IRP2−/− mice as described in LaVaute et al. supra. Myc-tagged HEK 293 Tet-on cell line, in which IRP2 expression was inducible, was prepared and cultured as described Bourdon et al., Blood Cells Mol Dis, 31, 247-255 (2003). Erythroblasts were harvested from bone marrow and purified as described in Cooperman et al., Blood, 106, 1084-1091 (2005).
RNA mobility shift assays: Gel retardation assays were performed as described in Meyron-Holtz et al., EMBO J, 23, 386-395 (2004). Tissue lysates were prepared in an anaerobic chamber as described above in oxygen-depleted lysis buffer containing 10 mM HEPES (pH 7.2), 3 mM MgC12, 40 mM KCl, 5% glycerol, 0.2% Nonidet P-40, 5 mM DTT, 1 mM AEBSF, 10 μg/ml. Leupeptin and complete TM EDTA free protease inhibitor cocktail (Roche Applied Science, Indiana). Lysate (x μl) containing 10 μg of total protein was added to (12.5−x) μl of bandshift buffer containing 25 mM Tris-HCl (pH 7.5) and 40 mM KCl. The samples were incubated for 5 min at room temperature (RT) with 12.5 μl of a reaction cocktail containing 20% glycerol, 0.2 U/μl Super RNAsine (Ambion, Tex.), 0.6 μg/μl yeast t-RNA, 5 mM DTT and 20 nM 32P-labelled IRE from human ferritin H-chain gene in 25 mM Tris-HCl (pH 7.5) and 40 mM KCl. A measure of 20 μl of this reaction mixture was loaded into a 10% acrylamide/TBE gel, which was run at 200 V for 2.15 h, and then the gel was fixed, dried and exposed for autoradiography.
To determine whether the effect of Tempo1 on IRP1 activity was kinetically consistent with oxidative disassembly of the iron sulfur cluster, the effect of Tempo1 on aconitase activity was compared to that of the iron chelator, deferiprone (DFO), which activates IRE-binding activity of IRP1 by limiting de novo synthesis and repair of the iron sulfur cluster in IRP1. […] Recovery of aconitase activity was assessed in wild type and IRP2−/− cells.

The source of these data is patent publication US20100179188A1, “NITROXIDE RADICAL AS TREATMENT FOR NEURODEGENERATION” (Office of Technology Transfer, NIH, priority 2007, published 2010).

As to `CC1(C)CC(O)CC(C)(C)N1[O]` [Tempo1], the IRE-binding activity entry in experiment [1] was “markedly increased”. The “time to reversal of the activation of IRE-binding activity after removal” value in experiment [2] (mouse embryonic fibroblasts, 16 hours treatment, then fresh unsupplemented media) is at most 2 h. Also, the “IRE-binding activity of IRP1” value in experiment [2] (wild type and IRP2−/− mouse embryonic fibroblasts treated 16 hours) is recorded as “activated”.
